# Test results from US10233222B2, “Methods, compositions, diagnostics and assays for the treatment of Alzheimer's disease” (priority 2014, dated 2019).
# Target: T1, Aβ42-SYP interaction (Homo sapiens, UniProt P08247)
# T1 construct: His6; made in house; host or cells: insect cells (SYP)
# Assay: SPR binding of Aβ42 to SYP in the presence of cholesterol hemisuccinate
# Conditions: increasing concentrations of cholesterol hemisuccinate
# Experimental: Surface Plasmon Resonance: Binding studies were performed on a Biacore 3000 or a BiOptix 404 pi, with similar results. For the Biacore, a CMS chip was used and for the BiOptix instrument, a CMV150 chip was employed. […] Recombinant human SYP, containing a His(6)-tag expressed in insect cells, was a gift of J. Mapes and A. DeFazio at CU Boulder. Bovine serum albumin (Sigma, St. Louis, Mo.), Interleukin 1 receptor antagonist (gift of Synergen, Inc., Boulder, Colo.), and SLC35F1 (gift of G. Chang, UCSD) were used as control proteins. Binding at a flow rate of 20 μl/min was in 0.15M sodium chloride, 0.03M sodium HEPES, pH 7.4, 0.009% Fos-choline 14 (Anatrace, Santa Clara, Calif.) for all samples.
# We therefore asked if cholesterol inhibits the Aβ42-SYP interaction.
# T1 sequence (P08247 whole entry): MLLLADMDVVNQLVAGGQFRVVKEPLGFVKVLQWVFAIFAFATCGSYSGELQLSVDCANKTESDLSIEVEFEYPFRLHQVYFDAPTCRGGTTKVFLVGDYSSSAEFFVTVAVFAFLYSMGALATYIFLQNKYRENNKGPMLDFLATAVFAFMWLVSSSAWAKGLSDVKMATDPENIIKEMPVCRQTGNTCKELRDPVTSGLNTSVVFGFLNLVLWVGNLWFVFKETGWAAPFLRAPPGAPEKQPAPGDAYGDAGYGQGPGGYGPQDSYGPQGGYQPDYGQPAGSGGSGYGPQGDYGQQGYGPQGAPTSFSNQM
substance,measurement,value
cholesterol hemisuccinate,inhibition of binding of Aβ42 to SYP,robust concentration dependent inhibition of binding
